{"source": "ChEMBL document CHEMBL1201862", "about": "“PubChem BioAssay data set” (2004)", "target": "Envelope glycoprotein gp160 (Human immunodeficiency virus 1, UniProt Q6QLK5)", "sequence (Q6QLK5 whole entry, the tested form may be a part)": "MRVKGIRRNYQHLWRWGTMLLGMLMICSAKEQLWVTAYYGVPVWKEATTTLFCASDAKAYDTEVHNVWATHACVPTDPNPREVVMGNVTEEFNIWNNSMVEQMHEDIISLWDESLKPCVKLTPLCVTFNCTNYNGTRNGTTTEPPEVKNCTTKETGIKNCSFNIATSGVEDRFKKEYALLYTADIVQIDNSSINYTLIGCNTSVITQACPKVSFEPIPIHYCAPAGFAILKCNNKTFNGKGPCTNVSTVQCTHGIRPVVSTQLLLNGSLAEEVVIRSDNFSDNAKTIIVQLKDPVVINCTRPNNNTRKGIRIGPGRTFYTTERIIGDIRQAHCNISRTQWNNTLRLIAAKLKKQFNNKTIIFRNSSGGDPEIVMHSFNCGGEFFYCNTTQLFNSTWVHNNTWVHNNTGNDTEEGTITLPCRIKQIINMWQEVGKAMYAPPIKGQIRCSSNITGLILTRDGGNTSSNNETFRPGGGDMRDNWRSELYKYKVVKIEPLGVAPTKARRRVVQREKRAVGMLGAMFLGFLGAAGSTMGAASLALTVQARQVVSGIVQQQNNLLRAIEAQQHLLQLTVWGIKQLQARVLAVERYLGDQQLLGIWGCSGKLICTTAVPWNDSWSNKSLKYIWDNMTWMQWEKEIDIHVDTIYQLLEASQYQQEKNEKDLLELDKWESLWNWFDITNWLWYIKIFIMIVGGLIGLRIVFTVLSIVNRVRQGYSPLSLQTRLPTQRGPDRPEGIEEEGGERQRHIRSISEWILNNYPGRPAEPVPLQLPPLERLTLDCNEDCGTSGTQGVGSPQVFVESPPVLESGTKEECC", "assay": "cell-free HIV fusion peptide-binding blockers – biochemical, uHTS, fluorescence dequenching, […] (AID 1986)", "note": "Calls of active or inactive are those of the source. No stated cut-off is given here; in the data, actives have a measured IC50 and inactives only a lower limit."}
{"compound": "COc1cc(/C=C2\\C(=N)N3N=C(S(C)(=O)=O)SC3=NC2=O)ccc1OC(=O)c1ccco1", "values": [{"measurement": "IC50", "result": "21.9 µM (active)"}]}
{"compound": "O=C(O)COc1ccccc1/C=N/NC(=O)CSc1nnc(SCc2cccc3ccccc23)s1", "values": [{"measurement": "IC50", "result": "26.6 µM (active)"}]}
